Reference: patent publication US12258344B2, “Azaaromatic amide derivatives for the treatment of cancer” (SHENZHEN FORWARD PHARMACEUTICALS CO., LTD., priority 2019, dated 2025)

Experiments:
Assay type in all cases: cell-based
BaF3 (EGFR/S768I) = biological target: T1, BaF3 (EGFR/S768I) (Homo sapiens, UniProt P00533, cells depend on it, form not given); test: Test 19: EGFR/S768I mutant cell line proliferation test; details: EGFR S768I and EGFR L861Q (tests 19-20), in words
T1 construct: other: EGFR S768I and EGFR L8
Protocol: Test 19: EGFR/S768I Mutant Cell Line Proliferation Test
(§1) The number of viable cells in the culture was measured according to the protocol described in Promega's Cell Titer-Glo Luminescent cell Viability Assay (Promega catalog number #G7570). 90 μl of cells (3,000 cells/well) were cultured in growth medium in a Corning black transparent bottom 96-well plate, and cultured in a 5% CO2 humidified incubator at 37° C. overnight. The compound serially diluted in 100% DMSO was added to the cells using a pipette, and the cells were incubated for another 72 hours. 100 μl of the mixed Cell Titer-Glo reagent was added to the cells in the 96-well culture plate to lyse the cells and mix gently. Subsequently, the […] was detected on the Envision microplate detector to obtain the data of each compound. Finally, the data was input into a suitable software package (such as Prism) for curve fitting analysis.

[1] = tested on: NCI-H1975 (EGFR L858R/T790M double mutant); test: Test 1: EGFR L858R/T790M (EGFR double mutant) cell proliferation test; details: Homo sapiens; NCI-H1975 cells, 72 hours, Cell Titer-Glo
Protocol: Test 1: EGFR L858R/T790M (EGFR Double Mutant) Cell Proliferation Test
The human lung cell line NCI-H1975 (EGFR L858R/T790M double mutant) was obtained from the American Type Culture Collection. NCI-H1975 cells were cultured in RPMI1640 medium containing 10% fetal bovine serum and 2 mM glutamine. The cells were grown at 37° C. in a humidified incubator with 5% CO2.
as §1, with “(8,000” for “(3,000”

BaF3 (EGFR-D770insSVD) = BaF3 (EGFR-D770insSVD) (Homo sapiens, UniProt P00533, DUP768-770, cells depend on it); test: Test 2: BaF3 (EGFR-D770insSVD) cell proliferation test; details: 72 hours, Cell Titer-Glo, read-out: Test 2 - IC50
Protocol: Test 2: BaF3 (EGFR-D770insSVD) Cell Proliferation Test
BaF3 (EGFR-D770insSVD) was cultured in RPMI1640 medium containing 10% fetal bovine serum and 2 mM glutamine. The cells were grown at 37° C. in a humidified incubator with 5% CO2.
as §1

BaF3 (EGFR-A763insFQEA) = BaF3 (EGFR-A763insFQEA) (Homo sapiens, UniProt P00533, INS763FQEA, cells depend on it); test: Test 3: BaF3 (EGFR-A763insFQEA) cell proliferation test; details: 72 hours, Cell Titer-Glo, read-out: Test 3 - IC50
Protocol: Test 3: BaF3 (EGFR-A763insFOEA) Cell Proliferation Test
BaF3 (EGFR-A763insFQEA) was cultured in RPMI1640 medium containing 10% fetal bovine serum and 2 mM glutamine. The cells were grown at 37° C. in a humidified incubator with 5% CO2.
as §1

BaF3 (EGFR-V769insASV) = BaF3 (EGFR-V769insASV) (Homo sapiens, UniProt P00533, DUP767-769, cells depend on it); test: Test 4: BaF3 (EGFR-V769insASV) cell proliferation test; details: 72 hours, Cell Titer-Glo, read-out: Test 4 - IC50
Protocol: Test 4: BaF3 (EGFR-V769insASV) Cell Proliferation Test
BaF3 (EGFR-V769insASV) was cultured in RPMI1640 medium containing 10% fetal bovine serum and 2 mM glutamine. The cells were grown at 37° C. in a humidified incubator with 5% CO2.
as §1

BaF3 (EGFR-N771insH) = BaF3 (EGFR-N771insH) (Homo sapiens, UniProt P00533, INS771H, cells depend on it); test: Test 5: BaF3 (EGFR-N771insH) cell proliferation test; details: 72 hours, Cell Titer-Glo, read-out: Test 5 - IC50
Protocol: Test 5: BaF3 (EGFR-N771insH) Cell Proliferation Test
BaF3 (EGFR-N771insH) was cultured in RPMI1640 medium containing 10% fetal bovine serum and 2 mM glutamine. The cells were grown at 37° C. in a humidified incubator with 5% CO2.
as §1

BaF3 (EGFR-D770insNPG) = BaF3 (EGFR-D770insNPG) (Homo sapiens, UniProt P00533, INS772GNP, cells depend on it); test: Test 6: BaF3 (EGFR-D770insNPG) cell proliferation test; details: 72 hours, Cell Titer-Glo, read-out: Test 6 - IC50
Protocol: Test 6: BaF3 (EGFR-D770insNPG) Cell Proliferation Test
BaF3 (EGFR-D770insNPG) was cultured in RPMI1640 medium containing 10% fetal bovine serum and 2 mM glutamine. The cells were grown at 37° C. in a humidified incubator with 5% CO2.
as §1

BaF3 (EGFR-S768I) = BaF3 (EGFR-S768I) (Homo sapiens, UniProt P00533, S768I, cells depend on it); test: Test 7: BaF3 (EGFR-S768I) cell proliferation test; details: 72 hours, Cell Titer-Glo, read-out: Test 7 - IC50
Protocol: Test 7: BaF3 (EGFR-S768I) Cell Proliferation Test
BaF3 (EGFR-S768I) was cultured in RPMI1640 medium containing 10% fetal bovine serum and 2 mM glutamine. The cells were grown at 37° C. in a humidified incubator with 5% CO2.
as §1

BaF3 (EGFR-L861Q) = BaF3 (EGFR-L861Q) (Homo sapiens, UniProt P00533, L861Q, cells depend on it); test: Test 8: BaF3 (EGFR-L861Q) cell proliferation test; details: 72 hours, Cell Titer-Glo, read-out: Test 8 - IC50
Protocol: Test 8: BaF3 (EGFR-L8610) Cell Proliferation Test
BaF3 (EGFR-L861Q) was cultured in RPMI1640 medium containing 10% fetal bovine serum and 2 mM glutamine. The cells were grown at 37° C. in a humidified incubator with 5% CO2.
as §1

BaF3 (HER2-A775insYVMA) = BaF3 (HER2-A775insYVMA) (Homo sapiens, UniProt P04626, DUP772-775, cells depend on it); test: Test 9: BaF3 (HER2-A775insYVMA) cell proliferation test; details: 72 hours, Cell Titer-Glo, read-out: Test 9 - IC50
Sequence of BaF3 (HER2-A775insYVMA) (P04626 with tags, fused parts or gaps DUP772-775): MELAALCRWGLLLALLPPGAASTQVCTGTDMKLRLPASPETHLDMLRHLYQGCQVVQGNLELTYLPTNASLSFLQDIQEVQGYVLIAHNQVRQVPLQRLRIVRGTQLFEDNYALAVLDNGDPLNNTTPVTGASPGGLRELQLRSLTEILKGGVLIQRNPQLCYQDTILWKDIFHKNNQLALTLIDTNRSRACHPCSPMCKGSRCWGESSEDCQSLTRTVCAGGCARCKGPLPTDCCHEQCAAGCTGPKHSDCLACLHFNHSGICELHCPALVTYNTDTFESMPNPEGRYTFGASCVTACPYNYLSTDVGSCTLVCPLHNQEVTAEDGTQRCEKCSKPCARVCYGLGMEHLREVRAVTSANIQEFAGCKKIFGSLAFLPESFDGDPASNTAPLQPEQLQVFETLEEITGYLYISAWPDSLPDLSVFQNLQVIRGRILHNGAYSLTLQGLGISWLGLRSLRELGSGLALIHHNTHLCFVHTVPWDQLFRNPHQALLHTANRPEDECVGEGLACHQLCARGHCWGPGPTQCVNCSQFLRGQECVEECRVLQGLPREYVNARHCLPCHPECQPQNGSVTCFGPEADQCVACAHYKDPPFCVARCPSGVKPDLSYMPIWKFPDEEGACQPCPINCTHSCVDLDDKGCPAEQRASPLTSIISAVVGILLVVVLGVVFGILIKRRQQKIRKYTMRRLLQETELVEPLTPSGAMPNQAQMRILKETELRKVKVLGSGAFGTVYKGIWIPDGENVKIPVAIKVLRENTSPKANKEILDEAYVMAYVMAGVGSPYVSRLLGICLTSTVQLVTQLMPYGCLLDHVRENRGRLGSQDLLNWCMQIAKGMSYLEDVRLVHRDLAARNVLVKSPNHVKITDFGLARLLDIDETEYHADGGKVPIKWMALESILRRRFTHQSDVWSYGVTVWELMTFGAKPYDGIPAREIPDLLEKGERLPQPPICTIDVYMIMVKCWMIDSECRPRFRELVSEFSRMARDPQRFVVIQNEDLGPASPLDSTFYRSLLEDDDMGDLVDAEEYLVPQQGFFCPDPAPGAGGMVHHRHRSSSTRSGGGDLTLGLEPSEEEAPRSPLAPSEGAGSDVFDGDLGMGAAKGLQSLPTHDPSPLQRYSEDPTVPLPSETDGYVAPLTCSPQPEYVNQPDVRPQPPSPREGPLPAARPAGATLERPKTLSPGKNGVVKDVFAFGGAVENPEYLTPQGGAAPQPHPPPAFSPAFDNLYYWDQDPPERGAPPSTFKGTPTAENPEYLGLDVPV
Protocol: Test 9: BaF3 (HER2-A775insYVMA) Cell Proliferation Test
BaF3 (HER2-A775insYVMA) was cultured in RPMI1640 medium containing 10% fetal bovine serum and 2 mM glutamine. The cells were grown at 37° C. in a humidified incubator with 5% CO2.
as §1

BaF3 (HER2-P780insGSP) = BaF3 (HER2-P780insGSP) (Homo sapiens, UniProt P04626, DUP778-780, cells depend on it); test: Test 10: BaF3 (HER2-P780insGSP) cell proliferation test; details: 72 hours, Cell Titer-Glo, read-out: Test 10 - IC50
Sequence of BaF3 (HER2-P780insGSP) (P04626 with tags, fused parts or gaps DUP778-780): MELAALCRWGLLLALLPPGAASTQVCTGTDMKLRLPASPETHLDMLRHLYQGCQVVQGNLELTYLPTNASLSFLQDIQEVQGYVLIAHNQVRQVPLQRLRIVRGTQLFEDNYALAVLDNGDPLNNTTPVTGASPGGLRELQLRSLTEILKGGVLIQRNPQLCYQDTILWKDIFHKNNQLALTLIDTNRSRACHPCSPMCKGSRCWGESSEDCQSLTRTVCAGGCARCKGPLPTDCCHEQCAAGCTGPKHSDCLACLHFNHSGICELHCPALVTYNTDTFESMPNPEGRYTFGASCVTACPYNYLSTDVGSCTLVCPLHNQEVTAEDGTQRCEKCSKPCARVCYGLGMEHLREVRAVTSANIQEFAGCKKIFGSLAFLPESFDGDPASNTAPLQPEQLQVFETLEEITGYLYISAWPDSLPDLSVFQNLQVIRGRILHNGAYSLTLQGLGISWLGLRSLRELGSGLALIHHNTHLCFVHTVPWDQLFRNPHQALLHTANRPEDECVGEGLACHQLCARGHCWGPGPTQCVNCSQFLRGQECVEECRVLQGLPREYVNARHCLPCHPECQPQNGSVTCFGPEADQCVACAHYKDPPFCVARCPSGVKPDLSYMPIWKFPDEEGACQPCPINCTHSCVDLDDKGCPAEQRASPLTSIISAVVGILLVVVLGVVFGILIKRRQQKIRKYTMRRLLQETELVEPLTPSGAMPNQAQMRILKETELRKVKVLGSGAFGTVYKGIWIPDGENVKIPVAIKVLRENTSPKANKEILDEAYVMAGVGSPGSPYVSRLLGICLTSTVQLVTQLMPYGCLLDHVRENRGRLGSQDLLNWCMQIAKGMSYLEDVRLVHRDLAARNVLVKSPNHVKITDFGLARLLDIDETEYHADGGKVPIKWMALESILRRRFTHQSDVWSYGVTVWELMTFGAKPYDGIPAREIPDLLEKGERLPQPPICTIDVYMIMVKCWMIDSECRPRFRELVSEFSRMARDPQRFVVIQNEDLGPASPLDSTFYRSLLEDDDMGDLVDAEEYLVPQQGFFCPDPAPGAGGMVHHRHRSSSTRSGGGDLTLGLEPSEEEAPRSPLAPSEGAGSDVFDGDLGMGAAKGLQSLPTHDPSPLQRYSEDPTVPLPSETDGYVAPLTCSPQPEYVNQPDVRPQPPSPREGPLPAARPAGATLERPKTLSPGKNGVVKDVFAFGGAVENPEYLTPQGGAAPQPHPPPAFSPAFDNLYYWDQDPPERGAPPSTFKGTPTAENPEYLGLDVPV
Protocol: Test 10: BaF3 (HER2-P780insGSP) Cell Proliferation Test
BaF3 (HER2-P780insGSP) was cultured in RPMI1640 medium containing 10% fetal bovine serum and 2 mM glutamine. The cells were grown at 37° C. in a humidified incubator with 5% CO2.
as §1

BaF3 (HER2-G776insVC) = BaF3 (HER2-G776insVC) (Homo sapiens, UniProt P04626, cells depend on it, form not given); test: Test 11: BaF3 (HER2-G776insVC) cell proliferation test; details: 72 hours, Cell Titer-Glo, read-out: Test 11 - IC50
Sequence of BaF3 (HER2-G776insVC) (P04626 with tags, fused parts or gaps DELINS776-776VC): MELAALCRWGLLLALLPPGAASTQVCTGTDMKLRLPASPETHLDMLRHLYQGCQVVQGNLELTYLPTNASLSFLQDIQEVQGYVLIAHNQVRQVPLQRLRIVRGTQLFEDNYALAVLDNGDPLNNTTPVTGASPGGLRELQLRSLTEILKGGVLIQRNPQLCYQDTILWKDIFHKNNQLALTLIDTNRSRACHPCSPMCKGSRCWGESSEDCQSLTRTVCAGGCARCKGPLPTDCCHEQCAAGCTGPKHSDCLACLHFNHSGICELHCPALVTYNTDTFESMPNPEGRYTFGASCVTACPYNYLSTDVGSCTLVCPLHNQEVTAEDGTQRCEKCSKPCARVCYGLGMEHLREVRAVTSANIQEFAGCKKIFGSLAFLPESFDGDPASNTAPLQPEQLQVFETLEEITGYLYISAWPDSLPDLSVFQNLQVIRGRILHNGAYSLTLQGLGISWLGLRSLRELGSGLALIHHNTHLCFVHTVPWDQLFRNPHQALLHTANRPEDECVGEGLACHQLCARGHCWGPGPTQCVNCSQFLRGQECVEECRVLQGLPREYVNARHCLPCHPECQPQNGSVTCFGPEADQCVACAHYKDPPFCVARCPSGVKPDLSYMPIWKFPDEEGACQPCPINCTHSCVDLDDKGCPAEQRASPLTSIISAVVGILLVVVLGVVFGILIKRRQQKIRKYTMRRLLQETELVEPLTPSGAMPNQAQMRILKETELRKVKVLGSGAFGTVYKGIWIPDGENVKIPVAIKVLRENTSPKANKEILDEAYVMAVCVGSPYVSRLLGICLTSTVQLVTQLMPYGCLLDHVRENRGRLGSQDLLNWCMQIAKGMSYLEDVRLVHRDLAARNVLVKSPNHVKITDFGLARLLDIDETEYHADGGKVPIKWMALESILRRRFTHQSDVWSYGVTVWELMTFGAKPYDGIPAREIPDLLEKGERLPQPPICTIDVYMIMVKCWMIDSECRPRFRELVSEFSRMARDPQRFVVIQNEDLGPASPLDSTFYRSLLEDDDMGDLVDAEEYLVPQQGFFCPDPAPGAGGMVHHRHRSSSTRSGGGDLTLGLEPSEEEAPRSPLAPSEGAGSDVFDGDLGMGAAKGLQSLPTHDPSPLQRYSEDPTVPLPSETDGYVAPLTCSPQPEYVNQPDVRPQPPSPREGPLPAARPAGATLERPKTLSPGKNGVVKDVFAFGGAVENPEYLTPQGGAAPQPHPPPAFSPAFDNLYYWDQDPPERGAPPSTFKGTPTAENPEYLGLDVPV
Protocol: Test 11: BaF3 (HER2-G776insVC) Cell Proliferation Test
The engineered cell line BaF3 (HER2-G776insVC) was constructed by the inventor himself (for the method of cell line construction, see Jingrui Jiang et al., Cancer Res. 2005 Oct. 1; 65 (19): 8964-74; Jacqulyne P. Robichaux et al., Nat Med. 2018 May; 24 (5): 638-646). BaF3 (HER2-G776insVC) was cultured in RPMI1640 medium containing 10% fetal bovine serum and 2 mM glutamine. The cells were grown at 37° C. in a humidified incubator with 5% CO2.
as §1

BaF3 (EGFR/D770insSVD) = biological target: T2, BaF3 (EGFR/D770insSVD) (Homo sapiens, UniProt P00533, cells depend on it, form not given); test: Test 13: EGFR exon 20 inserted D770insSVD cell proliferation test; details: A763insFQEA, V769insASV, D770insSVD (tests 13-15), in words
T2 construct: other: A763insFQEA, V769ins
Protocol: Test 13: EGFR Exon 20 Inserted D770insSVD Cell Proliferation Test
as §1

| SMILES | activity compared with Osimertinib (AZD9291) against EGFR S768I and EGFR L861Q mutations (BaF3 (EGFR/S768I)) | IC50 [1] | GI50 (BaF3 (EGFR-D770insSVD)) | GI50 (BaF3 (EGFR-A763insFQEA)) | GI50 (BaF3 (EGFR-V769insASV)) | GI50 (BaF3 (EGFR-N771insH)) | GI50 (BaF3 (EGFR-D770insNPG)) | GI50 (BaF3 (EGFR-S768I)) | GI50 (BaF3 (EGFR-L861Q)) | GI50 (BaF3 (HER2-A775insYVMA)) | GI50 (BaF3 (HER2-P780insGSP)) | GI50 (BaF3 (HER2-G776insVC)) | cell activity compared with Osimertinib (AZD9291) against EGFR exon 20 insertion mutations (BaF3 (EGFR/D770insSVD)) |
| --- | --- | --- | --- | --- | --- | --- | --- | --- | --- | --- | --- | --- | --- |
| C=CC(=O)Nc1cc(Nc2nccc(-c3cn(C)c4ccccc34)n2)c(OCC(F)(F)F)nc1N(C)CCN(C)C.CS(=O)(=O)O [Compound 31] | superior activity over Osimertinib (AZD9291) | – | – | – | – | – | – | – | – | – | – | – | – |
| C=CC(=O)Nc1cc(Nc2nccc(-c3cn(C)c4ccccc34)n2)c(OCC(F)(F)F)nc1N(C)CCN(C)C.Cl [Compound 32] | superior activity over Osimertinib (AZD9291) | – | – | – | – | – | – | – | – | – | – | – | – |
| C=CC(=O)Nc1cc(Nc2ncnc(-c3cn(C)c4ccc(OC)cc34)n2)c(OC)cc1N(C)CCN(C)C [Example 8, N-(2-((2-(dimethylamino)ethyl)(methyl)amino)-4-methoxy-5-((4-(5-methoxy-1-methyl-1H-indol-3-yl)-1,3,5-triazin-2-yl)amino)phenyl)acrylamide] | – | 39.6 nM | 30 nM | 16.6 nM | 57.6 nM | 18.2 nM | 22.8 nM | 7.82 nM | 5.82 nM | 21.8 nM | 11.6 nM | 2.73 nM | – |
| C=CC(=O)Nc1cc(Nc2ncnc(-c3cn(C)c4ccc(Cl)cc34)n2)c(OC)cc1N(C)CCN(C)C [Example 9] | – | 15.3 nM | 48.7 nM | 14.3 nM | 45.5 nM | 15.3 nM | 12.8 nM | 9.17 nM | 5.01 nM | 13.9 nM | 7.59 nM | 1.8 nM | – |
| C=CC(=O)Nc1cc(Nc2ncnc(-c3cn(C)c4cc(Cl)c(OC)cc34)n2)c(OC)cc1N(C)CCN(C)C [Example 10] | – | 183 nM | 566 nM | 183 nM | 466 nM | 146 nM | 181 nM | 44.5 nM | 36.1 nM | 45.2 nM | 32.6 nM | 9.56 nM | significant superior cell activity over Osimertinib (AZD9291) |
| C=CC(=O)Nc1cc(Nc2ncnc(Oc3ccc(Cl)c(OC)c3)n2)c(OC)cc1N(C)CCN(C)C [Example 12] | – | 66.3 nM | 183 nM | 57.3 nM | 121 nM | 82.5 nM | 75.3 nM | 29.4 nM | 17.2 nM | 98.2 nM | 47.8 nM | 11.4 nM | – |
| C=CC(=O)Nc1cc(Nc2ncnc(Oc3ccc(Cl)c(OC)c3)n2)c(OC(F)F)cc1N(C)CCN(C)C [Example 13] | – | 42.1 nM | 88.7 nM | 43.1 nM | 88.6 nM | 35.6 nM | 40.9 nM | 13.6 nM | 10.8 nM | 85.2 nM | 29.6 nM | 8.36 nM | – |
